Experimental data as given in patent US6852689B2, “Methods for administration of antibiotics” (priority 1998, dated 2005).
“And” between values parts separate entries of the source, which are not always exact repeats. Equal entries are not always repeated. Where two headings read alike, the source gives them in different places.

Key:
[1] = test system: human patients; assay: Clinical study (Example 4): serum CPK and skeletal muscle effects in hospitalized adult subjects with gram-positive infections; format: in vivo
Protocol: In order to study whether an increased dosing interval would prevent transient skeletal muscle toxicity in patients, daptomycin was administered intravenously to hospitalized adult subjects with serious gram-positive bacteremia or with a variety of infections due to gram-positive bacteria that was resistant to vancomycin or who were otherwise refractory to, or contraindicated for, currently available therapy. The subjects were treated for a period of 7-21 days. Serum CPK levels were determined prior to first antibiotic treatment and every other day for the first seven days of treatment, and daily thereafter.

[2] = test system: dogs; settings: dog, in vivo, iv, 40 mg/kg/day; cited from earlier work
[3] = test system: dogs; assay: Study B: skeletal muscle toxicity (serum CPK, microscopic myopathy) after repeated intravenous dosing; format: in vivo, dog
Protocol: Serum CPK levels were determined as disclosed in Example 1. […] In contrast, CPK levels at 5 mg/kg q8h were elevated compared to 5 mg/kg q24h or saline controls.

[4] = test system: gram-positive bacteria; settings: cited from earlier work
[5] = test system: dogs; assay: Study A: skeletal muscle toxicity (serum CPK, microscopic myopathy) after repeated intravenous dosing; settings: for Diaphragm myofiber degeneration, sites affected/sites examined / Heart myofiber degeneration, sites affected/sites examined / Skeletal muscle myofiber degeneration, sites affected/sites examined / Skeletal muscle myofiber regeneration, sites affected/sites examined: iv 20 days
Protocol: (§1) Skeletal muscle toxicity was measured in dogs by increases in CPK levels to above the normal range and by microscopic changes in skeletal tissue.
Treated animals were sacrificed at approximately one dosing interval after the last dose and muscle tissue was microscopically examined for indications of myopathy.

[6] = Study A: steady state plasma concentrations of daptomycin on day 18 by HPLC; settings: dogs
Protocol: as §1
Steady state plasma concentrations of daptomycin on day 18 of dosing were determined by HPLC.

[7] = human, in vivo
[8] = cited from earlier work
[9] = test system: rats; settings: rat, in vivo, iv, 75 mg/kg/day; cited from earlier work
[10] = test system: human volunteers and patients; settings: in vivo, cited from earlier work
[11] = Study B: steady state plasma concentrations of daptomycin on day 18 by HPLC
Protocol: In order to study the effects of threshold plasma concentration on skeletal muscle toxicity, dogs (4 male dogs/group) were administered dose regimens of saline q8h, daptomycin 5 mg/kg q24h (approximate NOELq24h) and daptomycin 5 mg/kg q8h intravenously for 20 days.
As in Example 1, steady state plasma concentrations of daptomycin on day 18 of dosing were determined by HPLC.

## CCCCCCCCCC(=O)N[C@@H](Cc1c[nH]c2ccccc12)C(=O)N[C@H](CC(N)=O)C(=O)N[C@@H](CC(=O)O)C(=O)N[C@@H]1C(=O)NCC(=O)N[C@@H](CCCN)C(=O)N[C@@H](CC(=O)O)C(=O)N[C@H](C)C(=O)N[C@@H](CC(=O)O)C(=O)NCC(=O)N[C@H](CO)C(=O)N[C@@H]([C@H](C)CC(=O)O)C(=O)N[C@@H](CC(=O)c2ccccc2N)C(=O)O[C@@H]1C [daptomycin]
[1]; human, in vivo
  Muscular pain or weakness: None of the patients experienced any muscular pain or weakness
[1]; iv 7-21 days, 4 mg/kg q24h
  Total Number of Patients with Presumed Drug-Related Adverse Skeletal Muscle Effects/Total Evaluated: 0/8
[1]; iv 7-21 days, 6 mg/kg q24h, 6 mg/kg
  Total Number of Patients with Presumed Drug-Related Adverse Skeletal Muscle Effects/Total Evaluated: zero of nine and 0/9
[1]; iv, 6 mg/kg followed by 3 mg/kg q12h
  Total Number of Patients with Presumed Drug-Related Adverse Skeletal Muscle Effects/Total Evaluated: 0/3
[2]
  Skeletal muscle finding: mild myopathy
[3]; dog, in vivo
  Effect on heart muscle: No degenerative effect
  Increases in CPK levels correlating with very minimal myofiber degeneration: zero- to four-fold
[3]; dog, in vivo, iv, 5 mg/kg
  Heart myofiber degeneration, sites affected/sites examined: 0/4
[3]; dogs, q24h dosing interval
  NOEL: approximately 5 mg/kg
[4]
  MIC of certain vancomycin-resistant strains relative to most vancomycin-susceptible strains: two- to four-fold
[4]; susceptible strains, typical
  MIC relative to that of vancomycin: 4 fold lower
[5]; dog, in vivo
  Increases in serum CPK correlating with minimal skeletal myofiber degeneration: three- to 25
  Microscopic effect on heart muscle: No microscopic degenerative effect
  Time of CPK peak during treatment: approximately 1 week
[5]; dog, in vivo, 25 mg/kg
  Increase in CPK levels: greater than 10 fold
[5]; dog, in vivo, iv, 75 mg/kg
  Incidence of Microscopic Myopathy (sites with minimal degenerative changes/sites examined): 8/28
  Peak CPK: 990 U/L
[5]; dogs, 25 mg/kg three times a day compared to once daily
  Increase in toxicity as measured by incidence of microscopic myopathy: 5 fold
[5]; dogs, 25 mg/kg q8h
  Diaphragm myofiber degeneration, sites affected/sites examined: 1/4
  Heart myofiber degeneration, sites affected/sites examined: 0/4
  Skeletal muscle myofiber degeneration, sites affected/sites examined: 14/24
  Skeletal muscle myofiber regeneration, sites affected/sites examined: 9/24
[5]; dogs, 25 mg/kg q24h
  Diaphragm myofiber degeneration, sites affected/sites examined: 0/4
  Heart myofiber degeneration, sites affected/sites examined: 0/4
  Skeletal muscle myofiber degeneration, sites affected/sites examined: 3/24
  Skeletal muscle myofiber regeneration, sites affected/sites examined: 2/24
[5]; dogs, 75 mg/kg q24h
  Diaphragm myofiber degeneration, sites affected/sites examined: 0/4
  Heart myofiber degeneration, sites affected/sites examined: 0/4
  Skeletal muscle myofiber degeneration, sites affected/sites examined: 8/24
  Skeletal muscle myofiber regeneration, sites affected/sites examined: 1/24
[6]; 25 mg/kg q8h compared to 25 mg/kg q24h
  Cmax ratio: 1.23 fold higher
[6]; 25 mg/kg q8h compared to 75 mg/kg q24h
  AUC ratio: 0.37 fold higher
[6]; 75 mg/kg q24h
  Time with plasma concentration below 27 μg/mL before next dose: approximately 12 hours
[6]; 75 mg/kg q24h compared to 25 mg/kg q8h
  Cmax ratio: approximately 2.8 fold higher
[7]; 4 mg/kg
  Predicted Cmax: 69.2 µg/mL
[7]; 6 mg/kg
  Predicted Cmax: 86.8 µg/mL
[8]
  Plasma protein binding: high
[9]
  Skeletal muscle finding: mild myopathy
[10]; 3 mg/kg
  Adverse effects: occasional adverse effects
[10]; 4 mg/kg
  Patients with transient muscular weakness and pain: two of five
[11]; dog, in vivo
  half-life: 2.5 h
[11]; dogs, 5 mg/kg q8h
  Time below 10 μg/mL plasma concentration: 6 h
[11]; dogs, 5 mg/kg q8h compared to 5 mg/kg q24h
  AUC ratio: 2.6 fold higher
[11]; dogs, 5 mg/kg q24h
  Time below 10 μg/mL plasma concentration: 18 h
